According to paper PMC6753678, “Fueling Open Innovation for Malaria Transmission-Blocking Drugs: Hundreds of Molecules Targeting Early Parasite Mosquito Stages” (Frontiers in Microbiology, 2019):
Like-named read-outs stand apart in the source and are kept apart here.

Experiments:
[1] = tested on: 3D7-strain P. falciparum asexual parasites; assay: P. falciparum asexual growth inhibition assay (Pf GIA); type: cell-based, Plasmodium falciparum; details: dose response confirmation; read-out: Pf asexual growth inhibition assays IC50
Outline: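 3D7 parasites at 0.25% parasitemia, 2% hematocrit were exposed to compounds in dose response for 72 h at 37°C under 5% CO2, 5% O2. Viability read as parasite LDH activity (nitro blue tetrazolium, A650) after freeze-thaw; inhibition scaled to chloroquine (50 μM) and DMSO controls, mean of three biological replicates.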

[2] = tested on: HepG2 cells; assay: HepG2 cytotoxicity assay; details: for IC50: read-out: HepG2 cytotoxicity assay IC50, dose response confirmation; for Pb ODA (this manuscript) HepG2 cytoxicity: HepG2 cytotoxicity listed with the Pb ODA data set (this manuscript)
Outline: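 Percent inhibition derived from fluorescent viability readout, normalised to DMSO (negative) and 50 μM doxorubicin (positive). Compound incubation lasted 48 h at 37°C, 5% CO2, with 2,500 HepG2 cells/well in MEM plus 10% FBS and 1% NEAA.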

[3] = tested on: P. berghei ookinete development; details: for % inhibition, Replicate A / % inhibition, Replicate B: primary screen at 1 μM
[4] = unified HepG2 value across the three screens
[5] = read-out: Pb ODA IC50, this manuscript
[6] = read-out: Pb Ookinete development assay IC50, dose response confirmation
[7] = read-out: Pb ODA (this manuscript) IC50, P. berghei ookinete development assay, this manuscript
[8] = HepG2 values of the three screens unified

SMILES	IC50 [1] [nM]	IC50 [2] [nM]	Unified cytotox [2, 4] [µM]	Is compound selective in assay? Pb ODA active? ([3]; 1: YES, 0: NO)	% inhibition, Replicate A [3] [%]	% inhibition, Replicate B [3] [%]	IC50 [3, 5] [nM]	IC50 [3, 6] [nM]	Pb ODA (this manuscript) HepG2 cytoxicity [2] [µM]	Is compound selective in assay? Pb ODA active? [3]	IC50 [3, 7] [nM]	HepG2 cytoxicity (Pb ODA, this manuscript) [2] [µM]	Unified cytotox [2, 8] [µM]
COc1ccc(-c2ccc([N+](=O)[O-])cc2C(=O)NCC(C)Oc2ccc(C(F)(F)F)cc2)cc1 (centres unmarked) [TCMDC-132304]	520	100000	100.00	1 (1: YES)	29.22	50.52	4010	4010					
CNC(=O)c1ccccc1Nc1nc(Nc2ccc(N3CCOCC3)cc2)ncc1Cl.Cl [TCMDC-134144]	1990	3630			67.63	105.55		387	3.63	0 (key: 1: YES; 0: NO)	390		
O=C(NCc1ccco1)c1ccc(CN2CCN(C(c3ccccc3)c3ccccc3)CC2)cc1 [TCMDC-140763]	1260	52500	52.48	1 (1: YES)	50.96	28.39	1480	1480					
COc1ccc2nccc([C@@H](O)CN3CCC(NCCOc4cc(C(F)(F)F)ccc4F)CC3)c2c1.O=C(O)C(=O)O [TCMDC-140658]	35	3.43		0 (0: NO)	63.44	46.33	3210	3210				0.00343	0.00343
O=C(c1cc(-c2ccco2)[nH]n1)N1CCN(S(=O)(=O)c2ccc(Cl)cc2)CC1 [TCMDC-124698]	563	100000			67.42	51.92		1120	100.00	1 (key: 1: YES; 0: NO)	1120		
Cc1[nH]c(C)c(-c2ccc(OCc3ccccc3)cc2)c(=O)c1Br [TCMDC-138901]	108	100000			91.81	92.28		224	100.00	1 (key: 1: YES; 0: NO)	220		
COc1ccc2nccc([C@@H](O)CN3CCC(NC(=O)c4ccc5cc[nH]c5c4)CC3)c2c1.CS(=O)(=O)O [TCMDC-140743]	1130	100000		1 (1: YES)	89.95	58.25	460	459					100.00
COc1ccc(NC2=C(c3ccccc3)C(=O)c3ccccc32)cn1 [TCMDC-125501]	385	100000			44.98	57.32		1980	100.00	1 (key: 1: YES; 0: NO)	1980		
Cc1[nH]c(C)c(-c2ccc(-c3ccc(OCC(F)(F)F)cc3)nc2)c(=O)c1Cl [TCMDC-132306]	655	100000		1 (1: YES)	58.32	97.73	1240	1240					100.00
CN(C)c1ccc(C=CC(=O)NC(=O)c2ccccc2O)cc1 [TCMDC-125391]	123	100000	100.00	1 (1: YES)	87.61	62.62		210					
Cc1ccccc1-c1cc(=O)c2cc(NC(=O)c3cccs3)ccc2o1 [TCMDC-124947]	408	100000	100.00	1 (1: YES)	33.03	54.68	4150	4150					
C=CCc1cc(OC)ccc1OCCCOc1c(C)nc(N)nc1N.Cl [TCMDC-131358]	< 0.2	260	0.26	0 (0: NO)	71.96	22.95	2360	2360					
COc1ccc2ncc(F)c(CCN3CCC(NCc4cc(C)c5c(c4)OCCO5)CC3)c2n1.Cl [TCMDC-136209]	449	21400			56.92	30.84		1740	21.38	1 (key: 1: YES; 0: NO)	1740		
CCN(CC)S(=O)(=O)n1ncc2c3c(N)nc(N)nc3ccc21.Cl [TCMDC-137302]	79	53.1			53.62	57.06		2000	0.0531	0 (key: 1: YES; 0: NO)			
Cc1[nH]c(C)c(-c2ccc(-c3ccc(OC(F)(F)F)cc3)nc2)c(=O)c1Br [TCMDC-136016]	326	100000		1 (1: YES)	59.20	74.30	450	446					100.00
C=CCOc1ccc(-c2c(C)[nH]c(C)c(Br)c2=O)cc1 [TCMDC-135042]	226	7080			92.87	107.55		700	7.08	1 (key: 1: YES; 0: NO)			
CC1CN(Cc2ccc(-c3ccc(-c4nc5ccccc5[nH]4)cc3)cc2)CC(C)O1.O=C(O)C(F)(F)F (centres unmarked) [TCMDC-133828]	1140	30200			97.54	72.23		868	30.20	1 (key: 1: YES; 0: NO)	870		
Cc1[nH]c2ccccc2c1C(=O)C(C)Sc1nnc(-c2ccccc2F)o1 (centres unmarked) [TCMDC-125312]	1270	57500	57.54	1 (1: YES)	63.08	65.66		2580					
Cc1cccc2nc(-c3ccc(-c4ccc(CN5CCCC(O)C5)cc4)cc3)[nH]c12.O=C(O)C(F)(F)F (centres unmarked) [TCMDC-133826]	1480	12900			58.08	28.26		9270	12.88	0 (key: 1: YES; 0: NO)			
CC(Cl)=CCc1c(C)[nH]c2c(ccc3ccccc32)c1=O [TCMDC-124085]	276	100000			85.49	96.24		328	100.00	1 (key: 1: YES; 0: NO)	330		
CC1CN(Cc2ccccc2)CCN1c1ccc(NC(=O)c2cccs2)cc1.O=C(O)C(F)(F)F (centres unmarked) [TCMDC-135005]	504	57500			105.18	99.00		732	57.54	1 (key: 1: YES; 0: NO)	730		
CCN(CC)c1ccccc1CNC(=O)c1cc(Cl)c(N)cc1OC [TCMDC-131416]	< 0.2	41700	41.69	1 (1: YES)	54.83	54.70	1320	1320					
Nc1nc(N)c2c(ccc3c2ccn3CCCF)n1 [TCMDC-138623]	122	1100		0 (0: NO)	92.24	33.21	1890	1890				1.10	1.10
NC(=O)c1ccccc1Nc1nc(Nc2cc[nH]n2)ncc1Cl [TCMDC-134169]	2310	13200			78.38	61.96		513	13.18	1 (key: 1: YES; 0: NO)	510		
COc1coc(C(=O)NC2CCN(CC3(c4ccc(Cl)cc4)CCC3)CC2)c1OC [TCMDC-124835]	107	52500	52.48	1 (1: YES)	73.94	84.15	900	899					
